The values below come from patent publication US8580965B2, “Substituted sulfonamide compounds” (Gruenenthal GmbH, priority 2006, dated 2013).

Structures are written as SMILES.

A word on the inhibition: it is the relative decrease from the control value, in per cent.

In test [1] the target is T1, human B1R receptor (bradykinin 1 receptor) (Homo sapiens, UniProt P46663).
T1 construct: host or cells: CHO K1 cells (hB1R cells)
T1 sequence (P46663 1-353): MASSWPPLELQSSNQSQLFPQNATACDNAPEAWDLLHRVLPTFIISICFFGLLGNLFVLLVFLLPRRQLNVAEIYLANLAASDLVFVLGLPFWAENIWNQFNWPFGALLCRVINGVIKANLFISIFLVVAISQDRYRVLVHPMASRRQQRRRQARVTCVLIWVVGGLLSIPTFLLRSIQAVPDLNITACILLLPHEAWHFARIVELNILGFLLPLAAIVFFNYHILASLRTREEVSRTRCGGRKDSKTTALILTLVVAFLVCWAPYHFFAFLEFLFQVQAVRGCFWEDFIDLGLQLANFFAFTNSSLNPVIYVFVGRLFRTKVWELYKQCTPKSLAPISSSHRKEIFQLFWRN
As to the kind of experiment: FLIPR Ca2+ assay (Fluo-4) on CHO K1 cells stably transfected with the human B1R gene; % activation and % inhibition at 10 μM. Particulars: CHO-K1, test substance 10 μM; CHO K1 hB1R cells; Ca2+ inflow after 0.5 nM Lys-Des-Arg9-bradykinin; read-out: B1R antagonism, human [10 μM] % inhibition. The format is cell-based. The essentials:
(§1)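 Fluo-4 Ca2+ flux on FLIPR in stable hB1R or rB1R CHO K1 lines, two additions. Agonism: 10 µM compound versus 0.5 nM Lys-Des-Arg9-BK (human) or 100 nM Des-Arg9-BK (rat); antagonism: same agonists applied 10 min later, suppression expressed against maximum achievable inhibition.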

Test [2] addresses T2, B1R receptor of the rat (bradykinin 1 receptor) (Rattus norvegicus, UniProt P97583).
T2 construct: host or cells: CHO K1 cells (rB1R cells)
T2 sequence (P97583 1-337): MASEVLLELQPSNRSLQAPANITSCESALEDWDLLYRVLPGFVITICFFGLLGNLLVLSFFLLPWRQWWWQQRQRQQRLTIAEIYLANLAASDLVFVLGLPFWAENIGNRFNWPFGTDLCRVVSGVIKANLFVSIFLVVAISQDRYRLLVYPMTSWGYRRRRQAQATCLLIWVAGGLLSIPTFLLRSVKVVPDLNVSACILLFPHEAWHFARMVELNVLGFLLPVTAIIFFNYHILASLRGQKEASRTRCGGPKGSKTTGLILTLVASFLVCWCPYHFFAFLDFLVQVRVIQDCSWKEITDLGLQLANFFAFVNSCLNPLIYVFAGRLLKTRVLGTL
As to the kind of experiment: FLIPR Ca2+ assay (Fluo-4) on CHO K1 cells stably transfected with the B1R gene of the rat; % activation and % inhibition at 10 μM. In kind it is cell-based. To be noted: CHO-K1, test substance 10 μM; CHO K1 rB1R cells; Ca2+ inflow after 100 nM Des-Arg9-bradykinin; read-out: B1R antagonism, rat [10 μM] % inhibition. The essentials: as §1

For the compound `COc1cc(C)c(S(=O)(=O)N(CCOCC(=O)N2CCC(O)(c3cccc(C(F)(F)F)c3)CC2)CC(C)C)c(C)c1C` [Example 212, N-(2-(2-(4-hydroxy-4-(3-(trifluoromethyl)phenyl)piperidin-1-yl)-2-oxoethoxy)ethyl)-N-isobutyl-4-methoxy-2,3,6-trimethylphenylsulfonamide], the inhibition at 10 µM in test [1] turned out to be 105%; in test [2], 100%.

Regarding `O=C(COCC1Cc2ccccc2CN1S(=O)(=O)c1ccc(Cl)c(Cl)c1)N1CCC(O)(c2ccccc2)CC1` (centres unmarked) [Example 78, 2-((2-(3,4-dichlorophenylsulfonyl)-1,2,3,4-tetrahydroisoquinolin-3-yl)methoxy)-1-(4-hydroxy-4-phenylpiperidin-1-yl)ethanone], the figures for the inhibition at 10 µM in test [1] and in test [2] were 13.7% and 12.7%, respectively.

In the case of `O=C(COCC1CCCCN1S(=O)(=O)c1ccccc1C(F)(F)F)N1CCC(O)(c2ccc(Br)cc2)CC1` (centres unmarked) [Example 174, 1-(4-(4-bromophenyl)-4-hydroxypiperidin-1-yl)-2-((1-(2-(trifluoromethyl)phenylsulfonyl)piperidin-2-yl)methoxy)ethanone], the inhibition at 10 µM worked out at 102% in test [1] and 105% in test [2].

Turning to `Cc1cc(C)c(S(=O)(=O)N2Cc3ccccc3CC2COCC(=O)N2CCC(O)(c3ccccc3)CC2)c(C)c1` (centres unmarked) [Example 101, 1-(4-hydroxy-4-phenylpiperidin-1-yl)-2-((2-(mesitylsulfonyl)-1,2,3,4-tetrahydroisoquinolin-3-yl)methoxy)ethanone], the figures for the inhibition at 10 µM in test [1] and in test [2] were 102% and 85.4%, respectively.

Take `Cc1cc(S(=O)(=O)N2CCCCC2CCC(=O)N2CCC(O)(c3cccc(F)c3)CC2)c(C)cc1Cl` (centres unmarked) [Example 120, 3-(1-(4-chloro-2,5-dimethylphenylsulfonyl)piperidin-2-yl)-1-(4-(3-fluorophenyl)-4-hydroxypiperidin-1-yl)propan-1-one]: the inhibition at 10 µM in test [1] was 58.4%; in test [2], 45.9%.

Consider `COc1cc(C)c(S(=O)(=O)N(C)CCOCCC(=O)N2CCC(O)(c3ccc(Cl)cc3)CC2)c(C)c1` [Example 275, N-(2-(3-(4-(4-chlorophenyl)-4-hydroxypiperidin-1-yl)-3-oxopropoxy)ethyl)-4-methoxy-N,2,6-trimethylphenylsulfonamide], for which the inhibition at 10 µM came to 100% in test [1] and 92.4% in test [2].

As for `O=C(COC1CCCCC1N(Cc1ccccc1)S(=O)(=O)c1ccc(Cl)c(Cl)c1)N1CCC(O)(c2ccccn2)CC1` (centres unmarked) [Example 95, N-benzyl-3,4-dichloro-N-{2-[2-(4′-hydroxy-3′,4′,5′,6′-tetrahydro-2′H-[2,4′]bipyridinyl-1′-yl)-2-oxo-ethoxy]-cyclohexyl}-phenylsulfonamide], the values for the inhibition at 10 µM in test [1] and in test [2] were 8.92% and -0.33%, respectively.

For the compound `COc1cc(C)c(S(=O)(=O)N2CCCCC2COCC(=O)N2CCC(O)(c3cccs3)CC2)c(C)c1` (centres unmarked) [Example 85, 1-(4-hydroxy-4-thiophen-2-yl-piperidin-1-yl)-2-[1-(4-methoxy-2,6-dimethyl-phenylsulfonyl)-piperidin-2-ylmethoxy]-ethanone], the inhibition at 10 µM in test [1] came out at 106%; in test [2] it was 101%.

For the compound `COc1cc(C)c(S(=O)(=O)N2CCCCC2CCC(=O)N2CCC(O)(c3cccnc3)CC2)c(C)c1` (centres unmarked) [Example 112, 1-(4-hydroxy-4-(pyridin-3-yl)piperidin-1-yl)-3-(1-(4-methoxy-2,6-dimethylphenylsulfonyl)piperidin-2-yl)propan-1-one], the results for the inhibition at 10 µM in test [1] and in test [2] were 106% and 101%, respectively.

In the case of `COc1cc(C)c(S(=O)(=O)N(CCOCC(=O)N2CCC(O)(c3cccnc3)CC2)C2CC2)c(C)c1` [Example 139, N-cyclopropyl-N-(2-(2-(4-hydroxy-4-(pyridin-3-yl)piperidin-1-yl)-2-oxoethoxy)ethyl)-4-methoxy-2,6-dimethylphenylsulfonamide], the inhibition at 10 µM in test [1] was 104%; in test [2], 101%.
